From PMC2199305 (Environmental Health Perspectives, 2007)
Read-outs that look alike come from different tables or passages of the source.

Key:
[1] = molecular target: T1, GST-ERR-γ –LBD (human ERR-γ) (Homo sapiens, UniProt P62508); assay: Competitive receptor binding assay using [3H]BPA as tracer; details: for fold weaker binding affinity for ERR-γ than bisphenol E: ratio of IC50 vs bisphenol E
T1 construct: made in house; host or cells: Escherichia coli BL21α (vector pGEX6P-1)
T1 sequence (P62508 233-457 limits assumed): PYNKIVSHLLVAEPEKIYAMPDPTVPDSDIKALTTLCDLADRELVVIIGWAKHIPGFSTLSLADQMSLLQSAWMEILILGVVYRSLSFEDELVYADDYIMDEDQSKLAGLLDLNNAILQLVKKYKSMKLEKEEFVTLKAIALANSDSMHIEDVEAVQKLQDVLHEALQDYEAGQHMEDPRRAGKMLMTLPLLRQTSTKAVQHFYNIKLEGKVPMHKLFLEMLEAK
Description: ERR-γ –LBD was amplified from a human kidney cDNA library (Clontech Laboratories, Mountain View, CA, USA) by polymerase chain reaction (PCR) using gene-specific primers and cloned into pGEX6P-1 (Amersham Biosciences, Piscataway, NJ, USA). Glutathione S-transferase (GST)–fused receptor protein expressed in Escherichia coli BL21α was purified on an affinity column of glutathione-sepharose 4B (GE Healthcare BioSciences Co., Piscataway, NJ, USA) to obtain GST-ERR-γ –LBD.
The reaction mixtures were incubated for 2 hr at 4°C and free radioligand was removed with 1% DCC by filtration as described above. Radioactivity was determined on a liquid scintillation counter (TopCount NXT; PerkinElmer Life Sciences Tokyo, Japan). […] Each assay was performed in duplicate and repeated at least three times.

[2] = molecular target: T2, human ERR-γ (Homo sapiens, UniProt P62508); details: HeLa cells; for inhibition of the inverse agonist (deactivation) activity of 4-OHT: added along with 1.0 μM 4-OHT; for effect on constitutive basal activity of ERR-γ: compound alone
T2 sequence (P62508 1-458): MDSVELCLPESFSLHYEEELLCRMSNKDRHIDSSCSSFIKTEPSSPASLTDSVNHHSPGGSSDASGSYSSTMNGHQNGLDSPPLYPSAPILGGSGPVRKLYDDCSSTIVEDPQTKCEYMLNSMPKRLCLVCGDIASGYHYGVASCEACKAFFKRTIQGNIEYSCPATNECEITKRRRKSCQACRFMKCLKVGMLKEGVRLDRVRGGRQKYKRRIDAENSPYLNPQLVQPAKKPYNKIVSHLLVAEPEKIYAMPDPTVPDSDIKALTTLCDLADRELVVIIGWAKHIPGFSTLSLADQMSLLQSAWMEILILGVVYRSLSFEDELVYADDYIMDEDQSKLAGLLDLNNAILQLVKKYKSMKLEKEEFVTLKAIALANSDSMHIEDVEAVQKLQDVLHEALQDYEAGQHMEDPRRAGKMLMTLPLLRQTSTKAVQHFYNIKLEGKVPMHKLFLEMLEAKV
Description: HeLa cells were maintained in Eagle’s MEM (EMEM; Nissui, Tokyo, Japan) in the presence of 10% (vol/vol) fetal bovine serum at 37°C. For luciferase assays, HeLa cells were seeded at 5 × 10^5 cells/6-cm dish for 24 hr and then transfected with 4 μg of reporter gene (pGL3/3 × ERRE) and 3 μg of ERR-γ expression plasmids (pcDNA3/ERR-γ ) by Lipofectamine Plus reagent (Invitrogen Japan, Tokyo, Japan) according to the manufacturer’s protocol. Approximately 24 hr after transfection, cells were harvested and plated into 96-well plates at 5 × 10^4 cells/well. The cells were then treated with varying doses of chemicals diluted with 1% bovine serum albumin/phosphate-buffered saline (BSA/PBS, vol/vol). […] After 24 hr, luciferase activity was measured with the appropriate reagent using a Luciferase Assay System (Promega, Madison, WI, USA) according to the manufacturer’s instructions. […] Cells treated with 1% BSA/PBS were used as a vehicle control. Each assay was performed in triplicate and repeated at least three times.

[3] = molecular target: T3, GST-ER-α –LBD (Homo sapiens, UniProt P03372); assay: Competitive binding assay using [3H]E2; details: for binding to ER-α (in words): [3H]E2 tracer; for ERR-γ receptor selectivity ER-α (IC50, nM)/ERR-γ (IC50, nM): ratio of IC50 values, ER-α over ERR-γ; for IC50: read-out: Binding affinity for ER-α (IC50)
T3 sequence (P03372 311-547 limits assumed): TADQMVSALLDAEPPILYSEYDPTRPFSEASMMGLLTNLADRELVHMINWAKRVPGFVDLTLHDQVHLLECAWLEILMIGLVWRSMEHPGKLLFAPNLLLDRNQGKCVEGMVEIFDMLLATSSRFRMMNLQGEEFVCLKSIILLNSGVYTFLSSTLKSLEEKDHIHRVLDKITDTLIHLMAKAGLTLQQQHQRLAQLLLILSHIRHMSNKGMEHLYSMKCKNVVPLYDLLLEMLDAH

[4] = read-out: Binding affinity for ERR-γ (IC50)

Row | SMILES | IC50 [1, 4] [nM] | binding to ER-α (in words) [3] | ERR-γ receptor selectivity ER-α (IC50, nM)/ERR-γ (IC50, nM) [3] | further results
1 | CCc1ccc(O)cc1 [4-Ethylphenol, 4-ethylphenol] | 289 ± 45.9 |  |  | 
2 | CC(C)c1ccc(O)cc1 [4-Isopropylphenol, 4-isopropylphenol] |  |  |  | IC50 [1]: 71.1 ± 7.73 nM
3 | CC/C(=C(\c1ccc(O)cc1)c1ccc(OCCN(C)C)cc1)c1ccccc1 [4-OHT, 4-hydroxytamoxifen, reference compound] |  |  |  | deactivation of ERR-γ (inverse agonist activity) ([2]; 1.0 μM): approximately 0.4 fold
4 | CCC(C)(C)c1ccc(O)cc1 [4-tert-Amylphenol, 4-tert-amylphenol] | 33.2 ± 2.85 | almost completely inactive | Exclusively ERR-γ | 
5 | CC(C)(C)c1ccc(O)cc1 [4-tert-Butylphenol, 4-tert-butylphenol] |  | almost completely inactive |  | 
6 | CC(C)(c1ccccc1)c1ccc(O)cc1 [4-α-Cumylphenol, 2-(4-hydroxyphenyl)-2-phenylpropane] |  |  |  | IC50 [3]: 4770 nM
7 | CC(C)(c1ccc(O)cc1)c1ccc(O)cc1 [BPA, 2,2-bis(4-hydroxyphenyl)propane] |  |  |  | IC50 [1]: 9.78 ± 0.87 nM; inhibition of the binding of [3H]BPA [1]: almost completely inhibits; inhibition of the inverse agonist (deactivation) activity of 4-OHT [2]: antagonizes or inhibits the deactivation activity of 4-OHT in a dose-dependent manner; effect on constitutive basal activity of ERR-γ [2]: retained a high constitutive basal activity
8 | Oc1ccc(C(c2ccc(O)cc2)(C(F)(F)F)C(F)(F)F)cc1 [Bisphenol AF, 2,2-bis(4-hydroxyphenyl)hexafluoropropane] | 358 ± 30.5 |  |  | inhibition of the inverse agonist (deactivation) activity of 4-OHT [2]: inhibited the inverse agonist activity of 4-OHT; effect on constitutive basal activity of ERR-γ [2]: retain a high constitutive basal activity
9 | CC(c1ccccc1)(c1ccc(O)cc1)c1ccc(O)cc1 [Bisphenol AP, 4,4′-(1-phenylethylidene)bisphenol] | 123 ± 15.1 |  |  | fold weaker binding affinity for ERR-γ than bisphenol E [1]: approximately 15 fold; IC50 [3]: 361 ± 22.6 nM
10 | CCC(C)(c1ccc(O)cc1)c1ccc(O)cc1 [Bisphenol B, 2,2-bis(4-hydroxyphenyl)butane] | 26.3 ± 2.65 |  | about 9.5 | IC50 [3]: 246 ± 29.7 nM
11 | CC(c1ccc(O)cc1)c1ccc(O)cc1 [Bisphenol E, 2,2-bis(4-hydroxyphenyl)ethane] | 8.14 ± 0.83 | almost completely inactive | Exclusively ERR-γ | inhibition of the inverse agonist (deactivation) activity of 4-OHT [2]: inhibited the inverse agonist activity of 4-OHT; effect on constitutive basal activity of ERR-γ [2]: retain a high constitutive basal activity
12 | Oc1ccc(Cc2ccc(O)cc2)cc1 [Bisphenol F, bis(4-hydroxyphenyl)methane] | 131 ± 17.9 | almost completely inactive | Exclusively ERR-γ | fold weaker binding affinity for ERR-γ than bisphenol E [1]: approximately 16 fold
